# Biological target: T1, integrin VLA-4, expressed on the Jurkat J6 (human lymphoblast cell line) cell membrane with VCAM-1 (Homo sapiens, UniProt P05556+P13612)
# T1 construct: integrin VLA-4, expressed on the Jurkat J6 (human lymphoblast cell line) cell membrane; endogenous in cells; host or cells: Jurkat J6 cells (integrin). zzVCAM-1 was made in house in Drosophila melanogaster S2 cells
# Assay: Jurkat J6/VCAM-1 adhesion assay
# Format: cell-based
# Settings: Jurkat J6 cell adhesion to VCAM-1, 1 mM MnCl2; mean of n experiments
# Experimental: (1) Jurkat J6/VCAM-1 Adhesion Assay
# This assay was used to investigate the interaction of the integrin VLA-4, expressed on the Jurkat J6 (human lymphoblast cell line) cell membrane with VCAM-1. Polystyrene 96-well microtitre plates were coated with human immunoglobulin G (IgG; Sigma Chemicals, UK, Product No. 14506) at a concentration of 0.05 mg ml^−1 in bicarbonate buffer (36 mM NaHCO3 and 22 mM Na2CO3, prepared in Dulbecco's phosphate buffered saline at pH 9.8 (PBS); Sigma Chemicals, UK, Product No. 14190-094) for 2 hours at 37° C. This solution was then aspirated and the plates were washed twice with PBS.
# VCAM-1 was prepared by cloning its constituent seven domains into a Drosophila expression system with a zz (Protein A) tag. This zzVCAM-1 was then expressed from Drosophila melanogaster S2 cell culture, induced with copper. Protease inhibitors were added and the culture supernatant was clarified either by filtration through a 0.2 μm filter or by centrifugation. The zzVCAM-1 was then purified from this clarified medium using an IgG agarose column, equilibrated with either 20 mM sodium phosphate pH 7.2 alone or in the presence of 0.5M sodium chloride. Elution of zzVCAM-1 from the column was mediated using 3M ammonium thiocyanate, which was subsequently removed using a G25 desalting column, equilibrated with 20 mM sodium phosphate, pH 7.2. The purified zzVCAM-1 was then concentrated to a small volume (Amicon stirred cell concentrators) until a concentration of 62.5 ng ml^−1 was obtained, calculated using the extinction coefficient value.
# This solution of zzVCAM-1 was then incubated overnight at 4° C. in the IgG coated microtitre plates with 3% bovine serum albumin (BSA) in PBS, followed by aspiration and two further washes with PBS. A concentration of the Jurkat J6 cells (6×10^6 cels ml^−1), grown in cell media RPMI 1640 (HyClone Ltd, Product No. B-9106-L) supplemented with 10% heat inactivated fetal calf serum (FCS; Gibco BRL, Product No. 10099-075) and 2 mM L-glutamine, were labelled with 10 μM of the fluorescent dye, 2′, 7′-bis(2-carboxyethyl)-5-(e6)-carboxyfluorescein acetoxymethyl ester (BCECF-AM; Molecular Probes Inc, Product No. B-1150) at 37° C. for 10 minutes. The excess dye was then removed by centrifugation at 500×g for 5 minutes and the cells were resuspended at a concentration of 1.2×10^7 cells ml^−1 in Hank's balanced salt solution (HBSS; Gibco BRL, Product No. 14190-094).
# Equal volumes of compounds (dissolved in an appropriate solvent and diluted in HBSS containing 1 mM MnCl2) and the labelled Jurkat J6 cells, were added to the VCAM-1 coated plates and adhesion was allowed to proceed for 30 minutes at 37° C. Non, or loosely adhered cells, were removed by inversion of the plate and blotted with tissue paper. Two washes with PBS and further blotting were then performed, before the addition of 2% detergent (Triton-X®; Sigma Chemicals UK, Product No. X100). Counting was undertaken in a Wallac Viktor™ Fluorimeter, where low fluorescence values were indicative of compounds which had inhibited adhesion. All samples were assayed in singlicate and the following four parameter curve fit, shown by Equation (I) was applied: [formula]
# Where a is the minimum, b is the Hill slope, c is the IC50 and d is the maximum. (Maximum and minimum values are those compared to adhesion in the absence of compound and in the presence of the dipotassium salt of 2 mM EDTA; Sigma Chemicals, UK, Product No. ED2P). Data is presented as the mean pIC50 with the standard error of the mean of n experiments.
# T1 sequence (P13612 34-1032): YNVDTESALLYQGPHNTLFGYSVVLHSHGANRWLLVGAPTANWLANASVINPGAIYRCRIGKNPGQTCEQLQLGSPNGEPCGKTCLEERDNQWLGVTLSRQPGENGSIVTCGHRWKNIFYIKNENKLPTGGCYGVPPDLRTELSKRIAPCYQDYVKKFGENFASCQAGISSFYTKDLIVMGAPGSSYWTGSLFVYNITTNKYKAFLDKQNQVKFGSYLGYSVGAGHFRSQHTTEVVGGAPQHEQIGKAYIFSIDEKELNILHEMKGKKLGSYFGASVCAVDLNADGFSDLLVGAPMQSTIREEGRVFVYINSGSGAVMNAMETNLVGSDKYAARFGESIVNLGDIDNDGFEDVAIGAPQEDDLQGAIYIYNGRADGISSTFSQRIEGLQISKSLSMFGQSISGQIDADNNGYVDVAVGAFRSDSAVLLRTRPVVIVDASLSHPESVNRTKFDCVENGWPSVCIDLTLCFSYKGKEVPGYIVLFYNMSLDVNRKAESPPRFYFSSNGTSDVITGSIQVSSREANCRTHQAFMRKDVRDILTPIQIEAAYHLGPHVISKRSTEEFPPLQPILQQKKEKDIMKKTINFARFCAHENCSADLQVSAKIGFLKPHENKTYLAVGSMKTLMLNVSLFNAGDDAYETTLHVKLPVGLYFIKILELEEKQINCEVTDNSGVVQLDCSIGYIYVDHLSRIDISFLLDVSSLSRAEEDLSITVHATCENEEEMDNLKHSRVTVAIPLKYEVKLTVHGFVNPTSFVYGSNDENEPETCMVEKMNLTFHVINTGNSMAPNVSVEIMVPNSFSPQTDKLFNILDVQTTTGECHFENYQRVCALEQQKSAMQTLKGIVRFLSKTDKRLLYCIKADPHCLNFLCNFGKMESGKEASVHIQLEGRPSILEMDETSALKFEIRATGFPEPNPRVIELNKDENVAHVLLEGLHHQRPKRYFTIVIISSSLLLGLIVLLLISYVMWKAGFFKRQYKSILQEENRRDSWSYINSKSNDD
# T1 sequence (P05556 21-798): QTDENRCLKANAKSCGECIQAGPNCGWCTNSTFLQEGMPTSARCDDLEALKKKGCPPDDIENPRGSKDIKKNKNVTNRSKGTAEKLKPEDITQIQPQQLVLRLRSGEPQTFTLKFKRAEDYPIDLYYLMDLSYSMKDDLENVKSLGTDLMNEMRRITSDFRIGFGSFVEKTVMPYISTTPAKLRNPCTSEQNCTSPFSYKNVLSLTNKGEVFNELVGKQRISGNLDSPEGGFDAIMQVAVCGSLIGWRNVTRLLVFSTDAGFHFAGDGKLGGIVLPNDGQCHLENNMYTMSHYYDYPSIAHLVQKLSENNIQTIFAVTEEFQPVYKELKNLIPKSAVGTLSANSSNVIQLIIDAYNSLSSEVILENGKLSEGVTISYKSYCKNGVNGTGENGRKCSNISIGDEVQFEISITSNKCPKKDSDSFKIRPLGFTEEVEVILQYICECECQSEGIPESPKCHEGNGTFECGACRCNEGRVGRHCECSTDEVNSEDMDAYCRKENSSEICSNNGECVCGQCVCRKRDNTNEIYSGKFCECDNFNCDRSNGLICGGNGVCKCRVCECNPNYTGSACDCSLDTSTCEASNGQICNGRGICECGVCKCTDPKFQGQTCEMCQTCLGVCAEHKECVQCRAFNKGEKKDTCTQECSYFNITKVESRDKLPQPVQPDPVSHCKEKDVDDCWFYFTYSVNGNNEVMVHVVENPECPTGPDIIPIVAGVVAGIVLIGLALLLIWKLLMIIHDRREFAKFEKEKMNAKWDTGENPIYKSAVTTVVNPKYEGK
row,Compound,IC50 [µM]
1,"CC(C)C[C@H](NC(=O)COc1ccccc1C(=O)c1ccccc1)C(=O)N[C@@H](Cc1ccc(OC(=O)N2CCC(NC(=O)Cc3ccccc3)CC2)cc1)C(=O)O [Example 1, (2S)-2-[((2S)-2-{[2-(2-Benzoylphenoxy)acetyl]amino}-4-methylpentanoyl)amino]-3-{4-[({4-[(2-phenylacetyl)amino]-1-piperidinyl}carbonyl)oxy]phenyl}propanoic acid]",0.0132
2,"CC(C)C[C@H](NC(=O)COc1cc2ccccc2cc1C(=O)N1CCCCC1)C(=O)N[C@@H](Cc1ccc(OC(=O)N2CCC(NC(=O)Cc3ccccc3)CC2)cc1)C(=O)O [Example 2, (2S)-2-({(2S)-4-Methyl-2-[(2-{[3-(1-piperidinylcarbonyl)-2-naphthyl]oxy}acetyl)amino]pentanoyl}amino)-3-{4-[({4-[(2-phenylacetyl)amino]-1-piperidinyl}carbonyl)oxy]phenyl}propanoic acid]",0.00933
3,"CC(C)C[C@H](NC(=O)COc1ccc(C(=O)N2CCCCC2)cc1)C(=O)N[C@@H](Cc1ccc(OC(=O)N2CCC(NC(=O)C(C3CCCCC3)C3CCCCC3)CC2)cc1)C(=O)O [Example 3, (2S)-3-{4-[({4-[(2,2-Dicyclohexylacetyl)amino]-1-piperidinyl}carbonyl)oxy]phenyl}-2-{[(2S)-4-methyl-2-({2-[4-(1-piperidinylcarbonyl)phenoxy]acetyl}amino)pentanoyl]amino}propanoic acid]",0.0417
4,"CC(C)C[C@H](NC(=O)COc1ccc(C(=O)N2CCCCC2)cc1)C(=O)N[C@@H](Cc1ccc(OC(=O)N2CCOCC2)cc1)C(=O)O [Example 4, (2S)-2-{[(2S)-4-Methyl-2-({2-[4-(1-piperidinylcarbonyl)phenoxy]acetyl}amino)pentanoyl]amino}-3-{4-[(4-morpholinylcarbonyl)oxy]phenyl}propanoic acid]",0.0166
5,"CC(C)C[C@H](NC(=O)COc1ccc(C(=O)N2CCCCC2)cc1)C(=O)N[C@@H](Cc1ccc(OC(=O)N2CCC(C(N)=O)CC2)cc1)C(=O)O [Example 5, (2S)-3-[4-({[4-(Aminocarbonyl)-1-piperidinyl]carbonyl}oxy)phenyl]-2-{[(2S)-4-methyl-2-({2-[4-(1-piperidinylcarbonyl)phenoxy]acetyl}amino)pentanoyl]amino}propanoic acid]",0.00776
6,"CC(C)C[C@H](NC(=O)COc1ccccc1C(=O)c1ccccc1)C(=O)N[C@@H](Cc1ccc(OC(=O)N2CCC(C(N)=O)CC2)cc1)C(=O)O [Example 6, (2S)-3-[4-({[4-(Aminocarbonyl)-1-piperidinyl]carbonyl}oxy)phenyl]-2-[((2S)-2-{[2-(2-benzoylphenoxy)acetyl]amino}-4-methylpentanoyl)amino]propanoic acid]",0.00562
7,"CC(C)C[C@H](NC(=O)COc1ccc(C(N)=O)cc1)C(=O)N[C@@H](Cc1ccc(OC(=O)N2CCC(C(N)=O)CC2)cc1)C(=O)O [Example 7, (2S)-2-{[(2S)-2-({2-[4-(Aminocarbonyl)phenoxy]acetyl}amino)-4-methylpentanoyl]amino}-3-[4-({[4-(aminocarbonyl)-1-piperidinyl]carbonyl}oxy)phenyl]propanoic acid]",0.00263
8,"CC(C)C[C@H](NC(=O)COc1ccccc1I)C(=O)N[C@@H](Cc1ccc(OC(=O)N2CCC(NC(=O)CC3CCCCC3)CC2)cc1)C(=O)O [Example 8, (2S)-3-{4-[({4-[(2-Cyclohexylacetyl)amino]-1-piperidinyl}carbonyl)oxy]phenyl}-2-[((2S)-2-{[2-(2-iodophenoxy)acetyl]amino}-4-methylpentanoyl)amino]propanoic acid]",0.0427
9,"CC(C)C[C@H](NC(=O)COc1ccccc1I)C(=O)N[C@@H](Cc1ccc(OC(=O)N2CCC(NC(=O)C(C3CCCCC3)C3CCCCC3)CC2)cc1)C(=O)O [Example 9, (2S)-3-{4-[({4-[(2,2-Dicyclohexylacetyl)amino]-1-piperidinyl}carbonyl)oxy]phenyl}-2-[((2S)-2-{[2-(2-iodophenoxy)acetyl]amino}-4-methylpentanoyl)amino]propanoic acid]",0.0263
10,"CC(C)C[C@H](NC(=O)c1cccc2c1oc1ccccc12)C(=O)N[C@@H](Cc1ccc(OC(=O)N2CCOCC2)cc1)C(=O)O [Example 10, (2S)-2-({(2S)-2-[(Dibenzo[b,d]furan-4-ylcarbonyl)amino]-4-methylpentanoyl}amino)-3-{4-[(4-morpholinylcarbonyl)oxy]phenyl}propanoic acid]",0.00832
11,"CC(C)C[C@H](NC(=O)c1cccc2c1oc1ccccc12)C(=O)N[C@@H](Cc1ccc(OC(=O)N2CCN(C(=O)c3ccco3)CC2)cc1)C(=O)O [Example 11, (2S)-2-({(2S)-2-[(Dibenzo[b,d]furan-4-ylcarbonyl)amino]-4-methylpentanoyl}amino)-3-[4-({[4-(2-furoyl)-1-piperazinyl]carbonyl}oxy)phenyl]propanoic acid]",0.00832
12,"CC(C)C[C@H](NC(=O)c1cccc2c1oc1ccccc12)C(=O)N[C@@H](Cc1ccc(OC(=O)N2CCN(C(=O)c3ccccc3)CC2)cc1)C(=O)O [Example 12, (2S)-3-(4-{[(4-Benzoyl-1-piperazinyl)carbonyl]oxy}phenyl)-2-({(2S)-2-[(dibenzo[b,d]furan-4-ylcarbonyl)amino]-4-methylpentanoyl}amino)propanoic acid]",0.011
13,"CC(C)C[C@H](NC(=O)c1cccc2c1oc1ccccc12)C(=O)N[C@@H](Cc1ccc(OC(=O)N2CCC(NC(=O)Cc3ccccc3)CC2)cc1)C(=O)O [Example 13, (2S)-2-({(2S)-2-[(Dibenzo[b,d]furan-4-ylcarbonyl)amino]-4-methylpentanoyl}amino)-3-{4-[({4-[(2-phenylacetyl)amino]-1-piperidinyl}carbonyl)oxy]phenyl}propanoic acid]",0.0257
14,"CC(C)C[C@H](NC(=O)COc1ccccc1I)C(=O)N[C@@H](Cc1ccc(OC(=O)N2CCC(NC(=O)Cc3ccccc3)CC2)cc1)C(=O)O [Example 14, (2S)-2-[((2S)-2-{[2-(2-Iodophenoxy)acetyl]amino}-4-methylpentanoyl)amino]-3-{4-[({4-[(2-phenylacetyl)amino]-1-piperidinyl}carbonyl)oxy]phenyl}propanoic acid]",0.0166
15,"CC(=O)N1CCN(C(=O)Oc2ccc(C[C@H](NC(=O)[C@H](CC(C)C)NC(=O)COc3ccccc3I)C(=O)O)cc2)CC1 [Example 15, (2S)-3-(4-{[(4-Acetyl-1-piperazinyl)carbonyl]oxy}phenyl)-2-[((2S)-2-{[2-(2-iodophenoxy)acetyl]amino}-4-methylpentanoyl)amino]propanoic acid]",0.00269
16,"CC(=O)N1CCN(C(=O)Oc2ccc(C[C@H](NC(=O)[C@H](CC(C)C)NC(=O)c3cccc4c3oc3ccccc34)C(=O)O)cc2)CC1 [Example 18, (2S)-3-(4-{[(4-Acetyl-1-piperazinyl)carbonyl]oxy}phenyl)-2-({(2S)-2-[(dibenzo[b,d]furan-4-ylcarbonyl)amino]-4-methylpentanoyl}amino)propanoic acid]",0.00372
17,"CC(C)C[C@H](NC(=O)COc1ccccc1I)C(=O)N[C@@H](Cc1ccc(OC(=O)N2CCN(C(=O)c3ccccc3)CC2)cc1)C(=O)O [Example 19, (2S)-3-(4-{[(4-Benzoyl-1-piperazinyl)carbonyl]oxy}phenyl)-2-[((2S)-2-{[2-(2-iodophenoxy)acetyl]amino}-4-methylpentanoyl)amino]propanoic acid]",0.00759
18,"CC(C)C[C@H](NC(=O)COc1ccc(Cl)cc1Cl)C(=O)N[C@@H](Cc1ccc(OC(=O)N2CCN(C(=O)c3ccccc3)CC2)cc1)C(=O)O [Example 22, (2S)-3-(4-{[(4-Benzoyl-1-piperazinyl)carbonyl]oxy}phenyl)-2-[((2S)-2-{[2-(2,4-dichlorophenoxy)acetyl]amino}-4-methylpentanoyl)amino]propanoic acid]",0.0224
